5 compounds from patent US8455440B2, “Combination anticoagulant therapy with a compound that acts as a factor Xa inhibitor” (Millennium Pharmaceuticals, Inc., priority 2007, dated 2013) can be followed below.

Positions of bridges follow the written chain, without caps; N, C: chain ends. Non-standard residues stand in square brackets, D forms with d. Residues, ends and D or L forms follow the SMILES beside them. hArg = N=C(N)NCCCC[C@H](N)C(=O)O; Mpa = O=C(O)CCS

Data set [1] has as its system ferric chloride induced thrombosis in rat carotid artery. Kind of data set: Ferric chloride induced thrombosis in rat carotid artery. Format: in vivo.
The test system of data set [2] is ADP induced platelet aggregation. The experiment in a line: Ex vivo platelet aggregation induced by 10 μM ADP. Format: in vivo. The note with it: Rattus norvegicus, po, 72 h, clopidogrel 1 mg/kg, dosed orally for three days, read-out: inhibition of ADP induced platelet aggregation in platelet rich plasma. As to the method:
(§1) In this experiment, the ability of Compound A to maintain vessel patency under arterial flow conditions in ferric chloride induced thrombosis in rat carotid artery is compared to that achieved by clopidogrel. Compound A was administered by intravenous infusions and clopidogrel was dosed orally for three days. Ex vivo platelet aggregation induced by 10 μM ADP and clotting times (prothrombin time, PT and activated partial thromboplastin times, aPTT) were measured over the experimental time course (90 min) in all animals.
This level of platelet inhibition is approximately equivalent to that attained by clopidogrel's effect on human platelets at the therapeutic dose in clinical use (75 mg per day). […] Time to occlusion was measured in animals that had vessel occlusion.

Data set [3] has as its system systolic and diastolic blood pressure. The experiment in a line: Telemetry blood pressure in conscious beagle dogs, three way crossover. Format: in vivo. As to the method: The study design was a three way crossover with one week between doses to ensure complete elimination of residual agents from the dogs' circulatory system. […] Data acquisition and analysis was performed using LDS Life Science Suite Ponemah P3 plus V 4.20 software with results reported as 10 minute averages for each animal.
AUC was derived from the systolic and diastolic baseline. […] Negative values represent a decrease in blood pressure relative to the baseline value.

In data set [4] the test system is clotting times (prothrombin time, PT and activated partial thromboplastin times, aPTT). Kind of data set: Ex vivo clotting times (PT, aPTT) in the rat thrombosis model. The note with it: Compound A 0.03 μM, aspirin 3 mg/kg, or both. As to the method:
as §1
as §1, with “The combination effect of an anticoagulant and anti-platelet agent, aspirin, was investigated in an in vivo model of thrombosis. […] In” for “In”, “aspirin.” for “clopidogrel.”, “aspirin” for “clopidogrel”, “administered as an intravenous bolus approximately 30 min prior to the start of the experiment.” for “dosed orally for three days.”, “μg/mL of collagen” for “μM ADP”

The next data set has as its system thrombin generation. The experiment in a line: Thrombin generation assay in platelet rich plasma (PRP). Format: biochemical, human. As to conditions: ASA donors (aspirin for at least three days), 0 nM Compound A; normalized to Non-ASA at 0 nM. The protocol:
PRP and PPP were prepared by spinning the anticoagulated blood at ˜100×g or 1000×g for 20 minutes, respectively, at room temperature. Platelet counts in PRP were adjusted with homologous PPP to about 200,000 platelets/μL. For thrombin generation in 100 μL reaction mixture, 75 μL PRP was first mixed with CaCl2, convulxin, and Z-Gly-Gly-Arg-aminomethylcoumarin (Z-GGR-AMC, a thrombin fluorogenic substrate) for 3 minutes at 37° C., followed by adding tissue factor (Innovin, Dade Behring) to initiate the generation of thrombin. A typical reaction mixture contained 15 mM Ca^2+, 0.1 μg/mL convulxin, 100 μM Z-GGR-AMC, and 0.1 nM TF (tissue factor) (Innovin). Thrombin formation was monitored continuously at 37° C. by a fluorometric plate reader (Molecular Devices) measuring the relative fluorescence units (RFU). Inhibitors were pre-incubated with plasma for 20 minutes at room temperature before adding CaCl2 and convulxin.
Non-ASA represents result from donors free of aspirin. ASA represents results from donors taken aspirin for at least three days. % Inhibition was calculated by normalization of mean RFU (n=5) to Non-ASA at 0 nM Compound A.

The test system of data set [5] is collagen induced platelet aggregation. Kind of data set: Ex vivo platelet aggregation induced by 10 μg/mL of collagen. The format is in vivo. As to conditions: Rattus norvegicus. The protocol: The combination effect of an anticoagulant and anti-platelet agent, aspirin, was investigated in an in vivo model of thrombosis. […] Ex vivo platelet aggregation induced by 10 μg/mL of collagen and clotting times (prothrombin time, PT and activated partial thromboplastin times, aPTT) were measured over the experimental time course (90 min) in all animals.

The next data set deals with Interleukin 8. Kind of data set: Ex vivo cytokine release in human whole blood: interleukin 8. Format: cell-based. The note with it: ASA treated donors, no Compound A (Control = 100.0).
A further data set relates to human whole blood. Kind of data set: Real time perfusion chamber: whole blood perfused over collagen and tissue factor coated surface. Format: cell-based. The note with it: 2.4 μM eptifibatide alone (0 nM Compound A), shear rate 300 s^−1, five donors. As to the method: After the perfusion, the thrombotic activity was quantified by measurement of labeled fibrin produced as a result of fibrinogen cleavage during the activation of platelets and the blood coagulation system. For this series of experiments in five healthy human volunteers, blood was obtained by venipuncture and treated with 2.4 μM eptifibatide. The dose of eptifibatide corresponds to the plasma concentration attained by therapeutic concentrations of the GPIIb/IIIa inhibitor.

For data set [6], the system named is venous thromboembolism (VTE). Kind of data set: Prospective randomized trial for prevention of venous thromboembolic events after total knee replacement. As to conditions: Enoxaparin 30 mg bid subcutaneous, 10-14 days, n = 41.
Text: Safety endpoints included the incidence of major and clinically significant nonmajor bleeds through the day after venography. All efficacy and bleeding endpoints were adjudicated by a blinded, independent central adjudication committee.
A further data set concerns pooled human plasma. The experiment in a line: Ex vivo clotting assays (aPTT) in pooled human plasma. Format: biochemical. As to conditions: 0.5 U/mL enoxaparin.
The mark [7] stands for this setting: Dog # 1, oral, Compound A 3 mg/kg, verapamil 10 mg/kg.
Setting [8] is: Dog # 2, oral, Compound A 3 mg/kg, verapamil 10 mg/kg.
[9] abbreviates: Dog # 3, oral, Compound A 3 mg/kg, verapamil 10 mg/kg.
The mark [10] stands for this setting: following verapamil or placebo administration ([…]), relative to baseline.
[11] abbreviates: three dogs, oral, Compound A 3 mg/kg, verapamil 10 mg/kg.

Experimental for Interleukin 8: An ex vivo assay system of human cytokine release was used to test whether inhibition of factor Xa should augment the effect of reduction of inflammation elicited by standard anti-inflammatory drugs, such as aspirin.
At the end of the activation period, blood samples were centrifuged at 13,000 rpm (15,000 g) for 5 min in an Eppendorf 5415G centrifuge. Plasma was removed, treated with protease inhibitor cocktail (Roche) and stored frozen at −80° C. Cytokines released from the blood cells were quantitated in a Multiplexed Biomarker Immunoassay for Luminex Instrumentation (Millipore USA).

Broadly, the inhibition is how much of the control response was suppressed. Regarding `COC(=O)[C@H](c1ccccc1Cl)N1CCc2sccc2C1` [Clopidogrel, reference compound], the “% Animals that did not occlude” value in [1] (clopidogrel 0.01 mg/kg (sub-therapeutic dose), oral) is recorded as 10%. For the same compound, in data set [1] (clopidogrel 1 mg/kg, dosed orally for three days), the “inhibition of rat thrombosis (animals that did not occlude)” value amounted to 89%. Besides, in [2], the inhibition at 1 mg/kg is 46%.

In the case of `COc1ccc(CCN(C)CCCC(C#N)(c2ccc(OC)c(OC)c2)C(C)C)cc1OC` (stereo not drawn) [Verapamil, reference compound], in data set [3] (setting [7]), the “Lowest Diastolic Blood Pressure Post-Dosing” value is given as 65.11 mmHg and the “Lowest Systolic Blood Pressure Post-Dosing” value came to 137.18 mmHg. Besides, in data set [3] (setting [8]), the “Lowest Diastolic Blood Pressure Post-Dosing” value came to 62.47 mmHg and the “Lowest Systolic Blood Pressure Post-Dosing” value was 111.90 mmHg. For the same compound, in data set [3] (setting [9]), the “Lowest Diastolic Blood Pressure Post-Dosing” value turned out to be 51.94 mmHg and the “Lowest Systolic Blood Pressure Post-Dosing” value was found to be 95.52 mmHg. Also, in data set [3] (Verapamil 10 mg/kg as a single agent, within one hour of oral administration), the “decrease of diastolic blood pressure” value was determined as 33%. In data set [3] (setting [10]), the “Mean Area Under the Curve for Diastolic Pressure (AUCP), Mean ± S.D.” value is −3077.8 ± 1845.51 mmHg * min and the “Mean Area Under the Curve for Systolic Pressure (AUCP), Mean ± S.D.” value was −1133.6 ± 1134.7 mmHg * min. For the same compound, the “Mean Area Under the Curve for Diastolic Pressure (AUCP), Mean ± S.D.” value in data set [3] (following verapamil or placebo administration ([…]), relative to baseline, listed as verapamil) is recorded as −3079±1846 mmHg * min. In [3] (setting [11]), the “Lowest Diastolic Blood Pressure Post-Dosing, Mean ± S.D.” value is reported as 59.84 ± 6.97^1 mmHg and the “Lowest Systolic Blood Pressure Post-Dosing, Mean ± S.D.” value is 114.87 ± 20.99 mmHg.

As to `CC(=O)Oc1ccccc1C(=O)O` [aspirin, acetylsalicylic acid, reference compound], in data set [4], the “APTT Ratio” value came out at 1.02 and the “PT ratio” value was found to be 1.01. Also, in the data set on thrombin generation, the “% Inhibition of thrombin generation” value came to 21.5%. Moreover, the “% DNO (inhibition of rat thrombosis)” value in data set [1] (Compound A 0.03 μM iv infusion, aspirin 3 mg/kg iv bolus, or both) was 30%. In addition, the “animals that did not occlude” value in data set [1] (aspirin 1.0 mg/kg iv bolus) came to 10%. Further, the “inhibition of rat thrombosis (animals that did not occlude)” value in data set [1] (aspirin 10 mg/kg iv bolus) worked out at 33.3%. Also, the “TTO (Time to occlusion)” value in [1] (average for animals that occluded, Compound A 0.03 μM, aspirin 3 mg/kg, or both) worked out at 31.61 ± 10.91 min. Moreover, the “DNO (did not occlude)” value in [1] (number of 10 animals, Compound A 0.03 μM iv infusion, aspirin 3 mg/kg iv bolus, or both) came out at 3. Besides, the inhibition at 1 mg/kg in data set [5] (aspirin 1.0 mg/kg iv bolus) was less than 2%. For the same compound, the inhibition at 3 mg/kg in [5] (aspirin 3 mg/kg iv bolus, read-out: inhibition of collagen induced platelet aggregation in platelet rich plasma) was 35%. The inhibition at 10 mg/kg in data set [5] (aspirin 10 mg/kg iv bolus) amounted to 77%. Further, in the data set with Interleukin 8, the “Percent Release of IL8” value came to 66.7%.

For the compound `N=C(N)NCCCC[C@@H]1NC(=O)CCSSC[C@@H](C(N)=O)NC(=O)[C@@H]2CCCN2C(=O)[C@H](Cc2c[nH]c3ccccc23)NC(=O)[C@H](CC(=O)O)NC(=O)CNC1=O` [eptifibatide, reference compound] ([Mpa][hArg]GDWPC-NH2; disulfide 1-7), the “Mean Fluorescence” value in the data set on human whole blood was found to be 118.0.

As for Enoxaparin [reference compound], the VTE % in [6] is 10%. Moreover, the “activated partial thromboplastin time (aPTT)” value with pooled human plasma is 55 s.
